# Laboratory results as given in US9458170B2, “Compound of camptothecin and preparation and use thereof” (YULIANG LI, priority 2012, dated 2016).
# How the values were obtained:
# Format in all cases: cell-based
# [1] = tested on: human colon cancer HT-29 cells; test: Cell Titre Glo luminescent cell viability assay, HT-29; conditions: 72 h, incubated 3 days, 0.3 nM~10 μM, 0.1% DMSO
# Description: (§1) The human lung cancer A549 cells were cultured in DMEM medium (Gibco®) supplemented with 10% fetal bovine serum (Hyclone®), and human colon cancer SW620, HT-29 cells and human prostate cancer PC-3 cells were cultured in RPMI-1640 medium (Gibco®) supplemented with 10% fetal bovine serum (Hyclone®). The cells described above were cultured in 25 cm^2 or 75 cm^2 plastic cell culture flask (Corning®) filled with 95% air and 5% CO2 at 37° C., for 2˜3 passages per week. Cells were seeded in 96 well cell culture plates (Corning®) at a density of 1×10^3 cells/well (A549), 2×10^3 cells/well (SW620 and HT-29), 3×10^3 cells/well (PC-3), 195 μL/well, and cultured at 37° C., under 95% air and 5% CO2. After 24 h, compounds of this disclosure were added. All the compounds (dissolved in 100% DMSO) were serially diluted three times by 100% DMSO starting from 10 mM. 4 μL of the solution of each concentration was added to 96 μL serum free medium, respectively, and 5 μL diluted solution by medium was added to the culture plates seeded with the cancer cells. The final concentration of DMSO in culture medium was 0.1%, and the final concentration of the compound was 0.3 nM˜10 μM. The said cells were incubated at 37° C. for 3 days. 3 Days later, the viabilities of viable cells were measured by luminescent plate reader according to the reaction of ATP and luciferase (Cell Titre Glo® Luminescent Cell Viability Assay, Promega). This method can be used to evaluate effectiveness of the compounds according to their influences on the cell growth. The dose response curves were generated by the obtained data, and IC50 values were calculated with the program Prism.
# [2] = tested on: human lung cancer A549 cells; test: Cell Titre Glo luminescent cell viability assay, A549; conditions: 72 h, incubated 3 days, 0.3 nM~10 μM, 0.1% DMSO
# Description: as §1
# [3] = tested on: human colon cancer SW620 cells; test: Cell Titre Glo luminescent cell viability assay, SW620; conditions: SW-620, 72 h, incubated 3 days, 0.3 nM~10 μM, 0.1% DMSO
# Description: as §1
# [4] = tested on: human prostate cancer PC-3 cells; test: Cell Titre Glo luminescent cell viability assay, PC-3; conditions: 72 h, incubated 3 days, 0.3 nM~10 μM, 0.1% DMSO
# Description: as §1
SMILES,IC50 [1],IC50 [2],IC50 [3],IC50 [4]
"CC[C@@]1(O)C(=O)OCc2c1cc1n(c2=O)Cc2cc3cc(OC)c(F)cc3nc2-1 [Example 9, (S)-4-ethyl-8-fluoro-4-hydroxy-9-methoxy-1H-pyrano[3′,4′:6,7]indolizino[1,2-b]quinoline-3,14(4H,12H)-dione]",< 100 nM,< 100 nM,< 100 nM,< 100 nM
"CC[C@@]1(O)C(=O)OCc2c1cc1n(c2=O)Cc2cc3cc(OC)ncc3nc2-1 [Example 1, (S)-4-ethyl-4-hydroxy-9-methoxy-1H-pyrano[3′,4′:6,7]indolizino[1,2-b][1,7]naphthyridine-3,14(4H,12H)-dione]",< 100 nM,< 100 nM,< 100 nM,< 500 nM
"CC[C@@]1(O)C(=O)OCc2c1cc1n(c2=O)Cc2cc3c(OC)nccc3nc2-1 [Example 2, (S)-7-ethyl-7-hydroxy-1-methoxy-7H-pyrano[3′,4′:6,7]indolizino[1,2-b][1,6]naphthyridine-8,11(10H,13H)-dione]",< 1000 nM,> 1000 nM,< 500 nM,> 1000 nM
"CC[C@@]1(O)C(=O)OCc2c1cc1n(c2=O)Cc2cc3cc4c(cc3nc2-1)CCO4 [Example 6, (S)-7-ethyl-7-hydroxy-10,13-dihydro-2H-furo[2,3-g]pyrano[3′,4′:6,7]indolizino [1,2-b]quinoline-8,11(3H,7H)-dione]",< 1000 nM,> 1000 nM,< 500 nM,> 1000 nM
"CC[C@@]1(O)C(=O)OCc2c1cc1n(c2=O)Cc2c-1nc1cc(F)c(OC)cc1c2C [Example 12, (S)-4-ethyl-8-fluoro-4-hydroxy-9-methoxy-11-methyl-1H-pyrano[3′,4′:6,7]indolizino[1,2-b]quinoline-3,14(4H,12H)-dione]",< 100 nM,< 100 nM,< 100 nM,< 100 nM
"CC[C@@]1(O)C(=O)OCc2c1cc1n(c2=O)Cc2cc3ccc(OC)c(O)c3nc2-1 [Example 10, (S)-4-ethyl-4,7-dihydroxy-8-methoxy-1H-pyrano[3′,4′:6,7]indolizino[1,2-b]quinoline-3,14(4H,12H)-dione]",< 500 nM,< 500 nM,< 100 nM,< 500 nM
"CC[C@@]1(O)C(=O)OCc2c1cc1n(c2=O)Cc2cc3nc(OC)ccc3nc2-1 [Example 5, (S)-7-ethyl-7-hydroxy-2-methoxy-7H-pyrano[3′,4′:6,7]indolizino[1,2-b][1,5]naphthyridine-8,11(10H,13H)-dione]",< 500 nM,< 100 nM,< 100 nM,< 500 nM
"CC[C@@]1(O)C(=O)OCc2c1cc1n(c2=O)Cc2cc3cc(OC)c(O)cc3nc2-1 [Example 7, (S)-4-ethyl-4,8-dihydroxy-9-methoxy-1H-pyrano[3′,4′:6,7]indolizino[1,2-b]quinoline-3,14(4H,12H)-dione]",< 100 nM,< 100 nM,< 100 nM,< 100 nM
"CC[C@@]1(O)C(=O)OCc2c1cc1n(c2=O)Cc2c-1nc1cc(F)c(OC)cc1c2N [Example 11, (S)-11-amino-4-ethyl-8-fluoro-4-hydroxy-9-methoxy-1H-pyrano[3′,4′:6,7]indolizino[1,2-b]quinoline-3,14(4H,12H)-dione]",< 500 nM,< 100 nM,< 100 nM,< 100 nM
"CC[C@@]1(O)C(=O)OCc2c1cc1n(c2=O)Cc2cc3c(O)nccc3nc2-1 [Example 3, (S)-7-ethyl-1,7-dihydroxy-7H-pyrano[3′,4′:6,7]indolizino[1,2-b][1,6]naphthyridine-8,11(10H,13H)-dione]",< 1000 nM,< 500 nM,< 500 nM,> 1000 nM
"CC[C@@]1(O)C(=O)OCc2c1cc1n(c2=O)Cc2cc3c(N(C)C)nccc3nc2-1 [Example 4, (S)-1-(dimethylamino)-7-ethyl-7-hydroxy-7H-pyrano[3′,4′:6,7]indolizino[1,2-b][1,6]naphthyridine-8,11(10H,13H)-dione]",> 1000 nM,< 100 nM,< 100 nM,< 500 nM
"CC[C@@]1(O)C(=O)OCc2c1cc1n(c2=O)Cc2cc3cc(O)c(F)cc3nc2-1 [Example 8, (S)-4-ethyl-8-fluoro-4,9-dihydroxy-1H-pyrano[3′,4′:6,7]indolizino[1,2-b]quinoline-3,14(4H,12H)-dione]",< 100 nM,< 100 nM,< 100 nM,< 100 nM
